Measurements published in publication PMC9554508, “ARumenamides: A novel class of potential antiarrhythmic compounds” (Frontiers in Pharmacology, 2022).

Target: T1, Nav1.5 (wild type; α-subunit co-transfected with the β1 subunit) (Homo sapiens, UniProt Q14524)
T1 construct: gene SCN5A; full-length alpha subunit transiently co-transfected with beta1 subunit and eGFP (separate cDNAs) in HEK293; with Sodium channel regulatory subunit beta-1
Assay: whole-cell patch clamp, peak INa block at -20 mV, Hill fit
Format: cell-based
Excerpt: whole-cell patch clamp, peak INa block at -20 mV, Hill fit on Nav1.5 (wild type; α-subunit co-transfected with the β1 subunit)

T1 sequence (Q14524 whole entry): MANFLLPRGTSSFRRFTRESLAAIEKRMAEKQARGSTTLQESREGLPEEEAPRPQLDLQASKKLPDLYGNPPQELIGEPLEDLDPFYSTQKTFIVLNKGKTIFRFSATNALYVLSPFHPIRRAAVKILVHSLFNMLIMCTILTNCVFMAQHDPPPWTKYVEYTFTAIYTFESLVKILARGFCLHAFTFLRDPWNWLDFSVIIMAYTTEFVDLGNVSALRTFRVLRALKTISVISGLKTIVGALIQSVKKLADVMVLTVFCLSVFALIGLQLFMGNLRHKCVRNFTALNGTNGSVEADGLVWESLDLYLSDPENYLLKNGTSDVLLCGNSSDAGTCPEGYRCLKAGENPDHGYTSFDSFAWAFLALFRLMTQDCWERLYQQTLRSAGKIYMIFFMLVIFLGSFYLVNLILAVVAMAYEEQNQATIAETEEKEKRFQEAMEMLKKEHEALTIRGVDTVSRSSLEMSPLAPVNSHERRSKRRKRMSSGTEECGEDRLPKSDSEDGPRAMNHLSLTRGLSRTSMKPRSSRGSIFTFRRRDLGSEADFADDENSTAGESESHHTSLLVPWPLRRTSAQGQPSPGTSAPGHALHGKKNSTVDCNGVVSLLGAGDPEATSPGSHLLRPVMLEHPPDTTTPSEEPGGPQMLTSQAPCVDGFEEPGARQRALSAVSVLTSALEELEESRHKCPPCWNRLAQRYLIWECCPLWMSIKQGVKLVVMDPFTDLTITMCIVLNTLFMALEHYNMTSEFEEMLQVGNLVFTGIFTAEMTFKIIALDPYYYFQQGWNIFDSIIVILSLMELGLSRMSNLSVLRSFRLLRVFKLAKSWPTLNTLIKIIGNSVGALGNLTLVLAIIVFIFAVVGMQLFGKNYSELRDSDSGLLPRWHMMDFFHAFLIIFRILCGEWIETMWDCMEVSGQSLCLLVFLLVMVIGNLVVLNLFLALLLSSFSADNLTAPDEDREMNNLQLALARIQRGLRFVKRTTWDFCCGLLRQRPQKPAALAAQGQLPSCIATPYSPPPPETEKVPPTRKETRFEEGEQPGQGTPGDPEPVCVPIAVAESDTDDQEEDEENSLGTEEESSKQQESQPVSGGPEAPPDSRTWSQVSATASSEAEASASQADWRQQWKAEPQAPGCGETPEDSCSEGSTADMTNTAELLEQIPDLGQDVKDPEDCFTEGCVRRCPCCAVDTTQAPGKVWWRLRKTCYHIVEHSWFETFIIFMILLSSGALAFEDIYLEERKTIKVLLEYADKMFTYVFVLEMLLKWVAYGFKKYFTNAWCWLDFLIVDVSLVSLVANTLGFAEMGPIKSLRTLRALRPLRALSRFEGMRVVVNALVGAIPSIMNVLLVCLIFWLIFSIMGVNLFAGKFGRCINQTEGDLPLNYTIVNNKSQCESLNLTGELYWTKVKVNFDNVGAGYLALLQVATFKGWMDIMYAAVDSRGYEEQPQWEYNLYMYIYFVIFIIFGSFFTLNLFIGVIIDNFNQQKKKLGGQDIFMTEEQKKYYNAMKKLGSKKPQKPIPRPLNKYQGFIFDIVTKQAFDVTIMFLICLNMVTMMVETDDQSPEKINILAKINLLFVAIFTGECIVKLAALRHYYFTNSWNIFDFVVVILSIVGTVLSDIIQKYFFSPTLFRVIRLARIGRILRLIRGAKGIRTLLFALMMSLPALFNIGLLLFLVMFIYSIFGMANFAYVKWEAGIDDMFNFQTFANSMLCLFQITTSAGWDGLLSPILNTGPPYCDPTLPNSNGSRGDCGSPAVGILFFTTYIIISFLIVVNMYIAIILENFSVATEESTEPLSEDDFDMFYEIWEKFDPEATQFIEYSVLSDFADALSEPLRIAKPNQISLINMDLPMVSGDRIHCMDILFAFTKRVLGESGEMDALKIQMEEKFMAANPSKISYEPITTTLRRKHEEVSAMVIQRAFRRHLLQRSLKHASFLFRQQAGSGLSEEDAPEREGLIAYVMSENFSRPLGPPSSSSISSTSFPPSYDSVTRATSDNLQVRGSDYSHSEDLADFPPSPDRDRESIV
T1 sequence (Q07699 19-218 partner): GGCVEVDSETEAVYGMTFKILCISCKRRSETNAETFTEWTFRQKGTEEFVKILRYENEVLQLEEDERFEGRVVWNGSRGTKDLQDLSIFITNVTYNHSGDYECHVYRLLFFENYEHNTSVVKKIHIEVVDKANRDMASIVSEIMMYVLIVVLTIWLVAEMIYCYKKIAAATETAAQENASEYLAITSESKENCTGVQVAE

Row | Compound | IC50
1 | O=C(NCc1ccco1)c1ccc2[nH]c(=O)c(=O)[nH]c2c1 [AR-051, N-(2-furylmethyl)-2,3-dioxo-quinoxaline-6-carboxamide] | 7.61 µM
2 | CCc1ccccc1NS(=O)(=O)c1ccc2[nH]c(=O)[nH]c2c1 [AR-807, N-(2-ethylphenyl)-2-oxo-benzimidazole-5-sulfonamide] | 9.86 µM
3 | COc1cccc(NS(=O)(=O)c2ccc3[nH]c(=O)[nH]c3c2)c1 [AR-802, N-(3-methoxyphenyl)-2-oxo-benzimidazole-5-sulfonamide] | 34.6 µM
4 | CN(C)[C@@H](CNC(=O)c1ccc2[nH]c(=O)c(=O)[nH]c2c1)c1ccco1 [AR-189, N-[(2S)-2-(dimethylamino)-2-(2-furyl)ethyl]-2,3-dioxo-quinoxaline-6-carboxamide] | 12.6 µM
5 | C=CCNS(=O)(=O)c1ccc2[nH]c(=O)[nH]c2c1 [AR-674, N-allyl-2-oxo-benzimidazole-5-sulfonamide] | 6.45 µM
